Reference: the supplement of paper PMC11208160

Assay: recombinant barcode read abundance after kanamycin selection (control-corrected) (log10(CPM+1)); higher = more efficient recombination; sequences stand for … in AGTGCAGAGAAAATCGGCCAGTTTTCTCTGCCTGCAGTCCGCATGCCGT…ATTTATGCAGCGGACTGCCTTTCTCCCAAAGTGATAAACCGGACAGTATCATGGACCGGTTTTCCCGGTAATCCGTATTTGCAAGGTTGGTTTCACT; site = the 11-nt target
Summary of the method: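 Targets were screened in pooled form in E. coli against IS621 bridge RNA target-binding loops. Recombination efficiency is based on barcode counts at recombinant junctions in counts per million, averaged and corrected for the control. Numbers are shown as log10(CPM+1), with duplicate plates on chloramphenicol/ampicillin LB agar (control) or chloramphenicol/ampicillin/kanamycin with 0.1 mM IPTG.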

Sequence | recombinant barcode read abundance (log10)
GGCTCCCTATGGGTTCTAACCTGTTGCGGAG [GGCTCCCCTCC_LTGcore_TA_RTGcore_CT] (site GGCTCCCCTCC) (LTG core: TA, RTG core: CT) | 0.233
GGGAGCCACTGGGTTCTAACCTGTTGCTGGT [GGGAGCCCTCA_LTGcore_AC_RTGcore_AC] (site GGGAGCCCTCA) (LTG core: AC, RTG core: AC) | 0.222
GGGAGCCCCTGGGTTCTAACCTGTTGCTGGG [GGGAGCCCTCA_LTGcore_CC_RTGcore_CC] (site GGGAGCCCTCA) (LTG core: CC, RTG core: CC) | 0.0526
GGGAGCCCTTGGGTTCTAACCTGTTGCTGAC [GGGAGCCCTCA_LTGcore_CT_RTGcore_GT] (site GGGAGCCCTCA) (LTG core: CT, RTG core: GT) | 1.06
GGGAGCCCTTGGGTTCTAACCTGTTGCTGGA [GGGAGCCCTCA_LTGcore_CT_RTGcore_TC] (site GGGAGCCCTCA) (LTG core: CT, RTG core: TC) | 0.172
GGGAGCCCTTGGGTTCTAACCTGTTGCTGTA [GGGAGCCCTCA_LTGcore_CT_RTGcore_TA] (site GGGAGCCCTCA) (LTG core: CT, RTG core: TA) | 0.029
GGGAGCCGTTGGGTTCTAACCTGTTGCTGAC [GGGAGCCCTCA_LTGcore_GT_RTGcore_GT] (site GGGAGCCCTCA) (LTG core: GT, RTG core: GT) | 0.168
GGGAGCCGTTGGGTTCTAACCTGTTGCTGAG [GGGAGCCCTCA_LTGcore_GT_RTGcore_CT] (site GGGAGCCCTCA) (LTG core: GT, RTG core: CT) | 0.186
GGGAGCCTCTGGGTTCTAACCTGTTGCTGAG [GGGAGCCCTCA_LTGcore_TC_RTGcore_CT] (site GGGAGCCCTCA) (LTG core: TC, RTG core: CT) | 0.0348
GGGAGCCTCTGGGTTCTAACCTGTTGCTGGA [GGGAGCCCTCA_LTGcore_TC_RTGcore_TC] (site GGGAGCCCTCA) (LTG core: TC, RTG core: TC) | 0.0883
GGGAGCCTTTGGGTTCTAACCTGTTGCTGAA [GGGAGCCCTCA_LTGcore_TT_RTGcore_TT] (site GGGAGCCCTCA) (LTG core: TT, RTG core: TT) | 0.11
GGGCGGACTTGGGTTCTAACCTGTTGCGGAG [GGGCGGACTCC_LTGcore_CT_RTGcore_CT] (site GGGCGGACTCC) (LTG core: CT, RTG core: CT) | 2.08
GGGCGGACTTGGGTTCTAACCTGTTGCGGCC [GGGCGGACTCC_LTGcore_CT_RTGcore_GG] (site GGGCGGACTCC) (LTG core: CT, RTG core: GG) | 0.0677
GGGCGGACTTGGGTTCTAACCTGTTGCGGCG [GGGCGGACTCC_LTGcore_CT_RTGcore_CG] (site GGGCGGACTCC) (LTG core: CT, RTG core: CG) | 0.232
GGGCGGACTTGGGTTCTAACCTGTTGCGGGG [GGGCGGACTCC_LTGcore_CT_RTGcore_CC] (site GGGCGGACTCC) (LTG core: CT, RTG core: CC) | 0.212
GGGCGGACTTGGGTTCTAACCTGTTGCGGTA [GGGCGGACTCC_LTGcore_CT_RTGcore_TA] (site GGGCGGACTCC) (LTG core: CT, RTG core: TA) | 0.0865
GGGCGGACTTGGGTTCTAACCTGTTGCGGTT [GGGCGGACTCC_LTGcore_CT_RTGcore_AA] (site GGGCGGACTCC) (LTG core: CT, RTG core: AA) | 0.765
GGGCGGAGATGGGTTCTAACCTGTTGCGGTC [GGGCGGACTCC_LTGcore_GA_RTGcore_GA] (site GGGCGGACTCC) (LTG core: GA, RTG core: GA) | 0.235
GGGCGGATCTGGGTTCTAACCTGTTGCGGAG [GGGCGGACTCC_LTGcore_TC_RTGcore_CT] (site GGGCGGACTCC) (LTG core: TC, RTG core: CT) | 0.798
GGGCGGATTTGGGTTCTAACCTGTTGCGGAA [GGGCGGACTCC_LTGcore_TT_RTGcore_TT] (site GGGCGGACTCC) (LTG core: TT, RTG core: TT) | 0.223
GGGCGGATTTGGGTTCTAACCTGTTGCGGAG [GGGCGGACTCC_LTGcore_TT_RTGcore_CT] (site GGGCGGACTCC) (LTG core: TT, RTG core: CT) | 0.188
GGGCGTGAATGGGTTCTAACCTGTTGCCTAG [GGGCGTGCTAG_LTGcore_AA_RTGcore_CT] (site GGGCGTGCTAG) (LTG core: AA, RTG core: CT) | 0.0426
GGGCGTGCCTGGGTTCTAACCTGTTGCCTGG [GGGCGTGCTAG_LTGcore_CC_RTGcore_CC] (site GGGCGTGCTAG) (LTG core: CC, RTG core: CC) | 0.138

Sequence | recombinant barcode read abundance (log10)
GGGCGTGCGTGGGTTCTAACCTGTTGCCTAG [GGGCGTGCTAG_LTGcore_CG_RTGcore_CT] (site GGGCGTGCTAG) (LTG core: CG, RTG core: CT) | 0.0925
GGGCGTGCTTGGGTTCTAACCTGTTGCCTCC [GGGCGTGCTAG_LTGcore_CT_RTGcore_GG] (site GGGCGTGCTAG) (LTG core: CT, RTG core: GG) | 1.53
GGGCGTGCTTGGGTTCTAACCTGTTGCCTGC [GGGCGTGCTAG_LTGcore_CT_RTGcore_GC] (site GGGCGTGCTAG) (LTG core: CT, RTG core: GC) | 0.847
GGGCGTGCTTGGGTTCTAACCTGTTGCCTTC [GGGCGTGCTAG_LTGcore_CT_RTGcore_GA] (site GGGCGTGCTAG) (LTG core: CT, RTG core: GA) | 0.564
GGGCGTGTATGGGTTCTAACCTGTTGCCTAG [GGGCGTGCTAG_LTGcore_TA_RTGcore_CT] (site GGGCGTGCTAG) (LTG core: TA, RTG core: CT) | 0
GGGCGTGTATGGGTTCTAACCTGTTGCCTTA [GGGCGTGCTAG_LTGcore_TA_RTGcore_TA] (site GGGCGTGCTAG) (LTG core: TA, RTG core: TA) | 0.36
GGTGCCCCTTGGGTTCTAACCTGTTGCCGAC [GGTGCCCCTCG_LTGcore_CT_RTGcore_GT] (site GGTGCCCCTCG) (LTG core: CT, RTG core: GT) | 0.297
GGTGCCCCTTGGGTTCTAACCTGTTGCCGTC [GGTGCCCCTCG_LTGcore_CT_RTGcore_GA] (site GGTGCCCCTCG) (LTG core: CT, RTG core: GA) | 0.332
GGTGCCCGATGGGTTCTAACCTGTTGCCGTC [GGTGCCCCTCG_LTGcore_GA_RTGcore_GA] (site GGTGCCCCTCG) (LTG core: GA, RTG core: GA) | 0.134
GGTGCCCTCTGGGTTCTAACCTGTTGCCGAG [GGTGCCCCTCG_LTGcore_TC_RTGcore_CT] (site GGTGCCCCTCG) (LTG core: TC, RTG core: CT) | 0.0654
GTCGCCCAGTGGGTTCTAACCTGTTGCTAAG [GTCGCCCCTTA_LTGcore_AG_RTGcore_CT] (site GTCGCCCCTTA) (LTG core: AG, RTG core: CT) | 0.139
GTCGCCCAGTGGGTTCTAACCTGTTGCTACT [GTCGCCCCTTA_LTGcore_AG_RTGcore_AG] (site GTCGCCCCTTA) (LTG core: AG, RTG core: AG) | 0.283
GTCGCCCCATGGGTTCTAACCTGTTGCTATG [GTCGCCCCTTA_LTGcore_CA_RTGcore_CA] (site GTCGCCCCTTA) (LTG core: CA, RTG core: CA) | 0.379
GTCGCCCCGTGGGTTCTAACCTGTTGCTAAG [GTCGCCCCTTA_LTGcore_CG_RTGcore_CT] (site GTCGCCCCTTA) (LTG core: CG, RTG core: CT) | 0.325
GTCGCCCCTTGGGTTCTAACCTGTTGCTAGC [GTCGCCCCTTA_LTGcore_CT_RTGcore_GC] (site GTCGCCCCTTA) (LTG core: CT, RTG core: GC) | 0.805
GTCGCCCGATGGGTTCTAACCTGTTGCTAAG [GTCGCCCCTTA_LTGcore_GA_RTGcore_CT] (site GTCGCCCCTTA) (LTG core: GA, RTG core: CT) | 0
GTCGCCCGATGGGTTCTAACCTGTTGCTATC [GTCGCCCCTTA_LTGcore_GA_RTGcore_GA] (site GTCGCCCCTTA) (LTG core: GA, RTG core: GA) | 0.103
GTCGCCCGGTGGGTTCTAACCTGTTGCTACC [GTCGCCCCTTA_LTGcore_GG_RTGcore_GG] (site GTCGCCCCTTA) (LTG core: GG, RTG core: GG) | 0.458
GTCGCCCGTTGGGTTCTAACCTGTTGCTAAG [GTCGCCCCTTA_LTGcore_GT_RTGcore_CT] (site GTCGCCCCTTA) (LTG core: GT, RTG core: CT) | 0.431
GTCGCCCTCTGGGTTCTAACCTGTTGCTAGA [GTCGCCCCTTA_LTGcore_TC_RTGcore_TC] (site GTCGCCCCTTA) (LTG core: TC, RTG core: TC) | 0.236
TAAGAATAATGGGTTCTAACCTGTTGCCTTT [TAAGAATCTAG_LTGcore_AA_RTGcore_AA] (site TAAGAATCTAG) (LTG core: AA, RTG core: AA) | 1.48
TAAGAATATTGGGTTCTAACCTGTTGCCTAT [TAAGAATCTAG_LTGcore_AT_RTGcore_AT] (site TAAGAATCTAG) (LTG core: AT, RTG core: AT) | 0.141
